Assay results published in ChEMBL document CHEMBL5385969, “Design, synthesis, in vitro and in silico evaluation of indole-based tetrazole derivatives as putative anti-breast cancer agents” (RSC Med Chem, 2024).

Key:
MDA-MB-231 = experiment: cells; settings: Homo sapiens, MDA-MB-231, 48 h
Description: Antiproliferative activity against human MDA-MB-231 cells assessed as inhibition of cell growth incubated for 48 hrs by MTT assay

MCF7 = experiment: cells; settings: Homo sapiens, MCF7, 48 h
Description: Antiproliferative activity against human MCF7 cells assessed as inhibition of cell growth incubated for 48 hrs by MTT assay

T47D = experiment: cells; settings: Homo sapiens, 48 h
Description: Antiproliferative activity against human T47D cells assessed as inhibition of cell growth incubated for 48 hrs by MTT assay

[1] = Cytotoxicity against human HEK293 cells incubated for 48 hrs by MTT assay; format: toxicity, cell-based

Compound | IC50 (MDA-MB-231) | IC50 (MCF7) | IC50 (T47D) | IC50 at 48 h [1]
Clc1ccc(Cn2nnc(-c3cn(Cc4ccccc4)c4ccccc34)n2)c(Cl)c1 | 7.69 µM | 12.7 µM | 10.9 µM | 
Cc1ccc(Cn2cc(-c3nnnn3Cc3cccc(Cl)c3)c3ccccc32)cc1 | 8.52 µM | 14.8 µM | 20 µM | 
c1ccc(Cn2nnc(-c3cn(Cc4ccccc4)c4ccccc34)n2)cc1 | 14.7 µM | 9.24 µM | 13.5 µM | 
COc1cccc(Cn2nnc(-c3cn(Cc4ccccc4)c4ccccc34)n2)c1 | 15.9 µM | 3.08 µM | 16.5 µM | 
Cc1ccc(Cn2cc(-c3nnn(Cc4ccc(Cl)c(Cl)c4)n3)c3ccccc32)cc1 | 14.9 µM | 8.73 µM | 23.9 µM | 
Cc1ccc(Cn2cc(-c3nnn(Cc4ccc(Cl)cc4)n3)c3ccccc32)cc1 | 11.6 µM | 16.4 µM | 18.8 µM | 
Cc1ccc(Cn2nnc(-c3cn(Cc4ccc(C)cc4)c4ccccc34)n2)cc1 | 15.8 µM | > 25 µM | > 25 µM | 
Cc1ccc(Cn2cc(-c3nnn[nH]3)c3ccccc32)cc1 | 13.8 µM | 9.99 µM | 14.1 µM | 
Cc1ccc(Cn2cc(-c3nnnn3Cc3ccccc3)c3ccccc32)cc1 | 9.62 µM | 9.93 µM | 14.5 µM | 
Cc1c(-c2ccc(O)cc2)n(Cc2ccc(OCCN3CCCCCC3)cc2)c2ccc(O)cc12 [BAZEDOXIFENE] | 6.73 µM | 7.31 µM | 14.2 µM | 38.5 µM
Cc1ccc(Cn2nnnc2-c2cn(Cc3ccc(C)cc3)c3ccccc23)cc1 | 9.72 µM | 20.6 µM | 23.7 µM | 
Cc1ccc(Cn2nnc(-c3cn(Cc4ccccc4)c4ccccc34)n2)cc1 | 13.4 µM | 11.3 µM | 10.1 µM | 
Clc1ccc(Cn2nnc(-c3cn(Cc4ccccc4)c4ccccc34)n2)cc1Cl | 19.4 µM | 7.95 µM | 10 µM | > 125 µM
Cc1ccc(Cn2cc(-c3nnnn3Cc3ccc(Cl)cc3Cl)c3ccccc32)cc1 | 11.2 µM | 8.32 µM | 8.15 µM | 
Cc1ccc(Cn2cc(-c3nnn(Cc4ccccc4)n3)c3ccccc32)cc1 | 8.2 µM | 11.9 µM | 15.8 µM | 
Clc1cccc(Cn2nnc(-c3cn(Cc4ccccc4)c4ccccc34)n2)c1 | 18.8 µM | 14.2 µM | 11.7 µM | 
c1ccc(Cn2cc(-c3nnn[nH]3)c3ccccc32)cc1 | 16.6 µM | > 25 µM | 24.4 µM | 
COc1cccc(Cn2nnc(-c3cn(Cc4ccc(C)cc4)c4ccccc34)n2)c1 | 12.1 µM | 15.1 µM | > 25 µM | 
Clc1ccc(Cn2nnc(-c3cn(Cc4ccccc4)c4ccccc34)n2)cc1 | 15.7 µM | 7.83 µM | 3.83 µM | 109 µM
Cc1ccc(Cn2cc(-c3nnn(Cc4ccc(F)cc4)n3)c3ccccc32)cc1 | 13.1 µM | 13.3 µM | 15.8 µM | 
Cc1ccc(Cn2cc(-c3nnn(Cc4cccc(Cl)c4)n3)c3ccccc32)cc1 | 12.8 µM | 13.2 µM | 14.2 µM | 
Cc1ccc(Cn2cc(-c3nnnn3Cc3ccc(Cl)c(Cl)c3)c3ccccc32)cc1 | 12.4 µM | 10.2 µM | 9.01 µM | 
Cc1ccc(Cn2cc(-c3nnn(Cc4ccc(Cl)cc4Cl)n3)c3ccccc32)cc1 | 16.7 µM | 16.6 µM | 10.6 µM | 
Fc1ccc(Cn2nnc(-c3cn(Cc4ccccc4)c4ccccc34)n2)cc1 | 12.9 µM | 22.7 µM | 17.8 µM | 
